Data: patent US9695155B2, “Herbicidal substituted pyrimidinyloxy benzene compounds” (E. I. DU PONT DE NEMOURS AND COMPANY, priority 2013, dated 2017)

Columns and labels:
[1] = system: large (Lg) crabgrass; test: Test A postemergence; assay type: in vivo, Digitaria sanguinalis
Procedure, shortened: (§1)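 Compounds in non-phytotoxic solvent with surfactant applied as soil spray preemergence, or postemergence to plants 2-10 cm at one- to two-leaf stage, in loam/sand. After approximately 10 days in greenhouse, injury rated visually versus untreated controls, 0 (no effect) to 100 (complete control).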

[2] = system: velvetleaf; test: Test A postemergence; assay type: in vivo, Abutilon theophrasti
Procedure, shortened: as §1

[3] = system: pigweed; test: Test A postemergence; assay type: in vivo, Amaranthus retroflexus
Procedure, shortened: as §1

[4] = system: corn; test: Test A preemergence; assay type: in vivo, Zea mays; details: for Corn plant response rating (0 to 100 scale): 125 g ai/ha
Procedure, shortened: as §1

[5] = system: morningglory; test: Test A preemergence; assay type: in vivo, Ipomoea spp.; details: for Morningglory plant response rating (0 to 100 scale): 125 g ai/ha
Procedure, shortened: as §1

[6] = system: corn; test: Test A postemergence; assay type: in vivo, Zea mays
Procedure, shortened: as §1

[7] = system: giant foxtail; test: Test A postemergence; assay type: in vivo, Setaria faberii
Procedure, shortened: as §1

[8] = system: velvetleaf; test: Test A preemergence; assay type: in vivo, Abutilon theophrasti; details: for Velvetleaf plant response rating (0 to 100 scale): 125 g ai/ha
Procedure, shortened: as §1

[9] = system: large (Lg) crabgrass; test: Test A preemergence; assay type: in vivo, Digitaria sanguinalis; details: for Crabgrass, Large plant response rating (0 to 100 scale): 125 g ai/ha
Procedure, shortened: as §1

[10] = system: barnyardgrass; test: Test A preemergence; assay type: in vivo, Echinochloa crus-galli; details: for Barnyardgrass plant response rating (0 to 100 scale, 0 is no effect, 100 is complete control): 125 g ai/ha
Procedure, shortened: as §1

[11] = system: sedge, umbrella; test: Test B flooded paddy test; assay type: in vivo, Cyperus difformis; details: Flood, 250 g ai/ha; 0 to 100 scale where 0 is no effect and 100 is complete control
Procedure, shortened: (§2)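 Compound added straight to paddy water, with pots kept flooded 3 cm above soil, on plants grown to the 2-leaf stage. Visual scoring 0-100 (100 = complete control) against untreated controls after 13 to 15 greenhouse days.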

[12] = system: wheat; test: Test A preemergence; assay type: in vivo, Triticum aestivum; details: for Wheat plant response rating (0 to 100 scale): 125 g ai/ha
Procedure, shortened: as §1

[13] = system: pigweed; test: Test A preemergence; assay type: in vivo, Amaranthus retroflexus; details: for Pigweed plant response rating (0 to 100 scale): 125 g ai/ha
Procedure, shortened: as §1

[14] = system: barnyardgrass; test: Test A postemergence; assay type: in vivo, Echinochloa crus-galli
Procedure, shortened: as §1

[15] = system: giant foxtail; test: Test A preemergence; assay type: in vivo, Setaria faberii; details: for Foxtail, Giant plant response rating (0 to 100 scale): 125 g ai/ha
Procedure, shortened: as §1

[16] = system: rice; test: Test B flooded paddy test; assay type: in vivo, Oryza sativa; details: Flood, 250 g ai/ha; 0 to 100 scale where 0 is no effect and 100 is complete control
Procedure, shortened: as §2

[17] = system: barnyardgrass; test: Test B flooded paddy test; assay type: in vivo, Echinochloa crus-galli; details: Flood, 250 g ai/ha; 0 to 100 scale where 0 is no effect and 100 is complete control
Procedure, shortened: as §2

[18] = system: morningglory; test: Test A postemergence; assay type: in vivo, Ipomoea spp.
Procedure, shortened: as §1

[19] = system: Heteranthera limosa; test: Test B flooded paddy test; assay type: in vivo; details: Flood, 250 g ai/ha; 0 to 100 scale where 0 is no effect and 100 is complete control
Procedure, shortened: as §2

[20] = system: wheat; test: Test A postemergence; assay type: in vivo, Triticum aestivum
Procedure, shortened: as §1

[21] = 1000 g ai/ha, 0 to 100 scale, 0 no effect, 100 complete control
[22] = 1000 g ai/ha, 0 to 100 scale, 0 no effect, 100 complete control, approx. 10 days
[23] = 125 g ai/ha, 0 to 100 scale, 0 no effect, 100 complete control
[24] = 500 g ai/ha, 0 to 100 scale where 0 is no effect and 100 is complete control

Structure (SMILES): CC(=O)c1cn(-c2c(Br)cccc2Oc2ncc(Cl)cn2)nn1 [Compound 280]
- Plant response rating, Crabgrass, Large [1, 21]: 90
- Plant response rating, Velvetleaf [2, 21]: 90
- Plant response rating, Pigweed [3, 21]: 100
- Corn plant response rating [4, 22]: 50
- Morningglory plant response rating [5, 22]: 0
- Plant response rating, Corn [6, 21]: 50
- Plant response rating, Foxtail, Giant [7, 21]: 90
- Velvetleaf plant response rating [8, 22]: 100
- Crabgrass, Large plant response rating [9, 22]: 100
- Barnyardgrass plant response rating [10, 22]: 100
- Plant response rating, Sedge, Umbrella [11]: 10
- Wheat plant response rating [12, 22]: 40
- Pigweed plant response rating [13, 22]: 100
- Plant response rating, Barnyardgrass [14, 21]: 90
- Foxtail, Giant plant response rating [15, 22]: 100
- Plant response rating, Rice [16]: 10
- Plant response rating, Barnyardgrass [17]: 10
- Plant response rating, Morningglory [18, 21]: 30
- Plant response rating, Ducksalad [19]: 30
- Plant response rating, Wheat [20, 21]: 40

Structure (SMILES): CC1(C)OB(c2cnn(-c3c(C#N)cccc3Oc3ncc(Cl)cn3)c2)OC1(C)C [Compound 285]
- Plant response rating, Crabgrass, Large [1, 23]: 10
- Plant response rating, Crabgrass, Large [1, 24]: 40
- Plant response rating, Velvetleaf [2, 23]: 30
- Plant response rating, Velvetleaf [2, 24]: 80
- Plant response rating, Pigweed [3, 23]: 80
- Plant response rating, Pigweed [3, 24]: 100
- Corn plant response rating (0 to 100 scale) [4]: 0
- Corn plant response rating [4, 24]: 20
- Morningglory plant response rating (0 to 100 scale) [5]: 0
- Morningglory plant response rating [5, 24]: 40
- Plant response rating, Corn [6, 23]: 0
- Plant response rating, Corn [6, 24]: 30
- Plant response rating, Foxtail, Giant [7, 23]: 0
- Plant response rating, Foxtail, Giant [7, 24]: 60
- Velvetleaf plant response rating (0 to 100 scale) [8]: 10
- Velvetleaf plant response rating [8, 24]: 40
- Crabgrass, Large plant response rating (0 to 100 scale) [9]: 80
- Crabgrass, Large plant response rating [9, 24]: 100
- Barnyardgrass plant response rating (0 to 100 scale, 0 is no effect, 100 is complete control) [10]: 0
- Barnyardgrass plant response rating [10, 24]: 30
- Plant response rating, Sedge, Umbrella [11]: 0
- Wheat plant response rating (0 to 100 scale) [12]: 0
- Wheat plant response rating [12, 24]: 20
- Pigweed plant response rating (0 to 100 scale) [13]: 80
- Pigweed plant response rating [13, 24]: 100
- Plant response rating, Barnyardgrass [14, 23]: 0
- Plant response rating, Barnyardgrass [14, 24]: 30
- Foxtail, Giant plant response rating (0 to 100 scale) [15]: 20
- Foxtail, Giant plant response rating [15, 24]: 100
- Plant response rating, Rice [16]: 0
- Plant response rating, Barnyardgrass [17]: 0
- Plant response rating, Morningglory [18, 23]: 30
- Plant response rating, Morningglory [18, 24]: 40
- Plant response rating, Ducksalad [19]: 0
- Plant response rating, Wheat [20, 23]: 0
- Plant response rating, Wheat [20, 24]: 20

Structure (SMILES): Clc1cnc(Oc2cccc(-c3ncco3)c2-n2cc(Br)cn2)nc1 [Compound 287]
- Plant response rating, Crabgrass, Large [1, 23]: 10
- Plant response rating, Crabgrass, Large [1, 24]: 20
- Plant response rating, Velvetleaf [2, 23]: 10
- Plant response rating, Velvetleaf [2, 24]: 20
- Plant response rating, Pigweed [3, 23]: 30
- Plant response rating, Pigweed [3, 24]: 50
- Corn plant response rating (0 to 100 scale) [4]: 0
- Corn plant response rating [4, 24]: 0
- Morningglory plant response rating (0 to 100 scale) [5]: 0
- Morningglory plant response rating [5, 24]: 0
- Plant response rating, Corn [6, 23]: 0
- Plant response rating, Corn [6, 24]: 0
- Plant response rating, Foxtail, Giant [7, 23]: 0
- Plant response rating, Foxtail, Giant [7, 24]: 0
- Velvetleaf plant response rating (0 to 100 scale) [8]: 0
- Velvetleaf plant response rating [8, 24]: 0
- Crabgrass, Large plant response rating (0 to 100 scale) [9]: 0
- Crabgrass, Large plant response rating [9, 24]: 70
- Barnyardgrass plant response rating (0 to 100 scale, 0 is no effect, 100 is complete control) [10]: 0
- Barnyardgrass plant response rating [10, 24]: 0
- Plant response rating, Sedge, Umbrella [11]: 0
- Wheat plant response rating (0 to 100 scale) [12]: 0
- Wheat plant response rating [12, 24]: 0
- Pigweed plant response rating (0 to 100 scale) [13]: 0
- Pigweed plant response rating [13, 24]: 100
- Plant response rating, Barnyardgrass [14, 23]: 0
- Plant response rating, Barnyardgrass [14, 24]: 0
- Foxtail, Giant plant response rating (0 to 100 scale) [15]: 0
- Foxtail, Giant plant response rating [15, 24]: 40
- Plant response rating, Rice [16]: 0
- Plant response rating, Barnyardgrass [17]: 0
- Plant response rating, Morningglory [18, 23]: 10
- Plant response rating, Morningglory [18, 24]: 20
- Plant response rating, Ducksalad [19]: 0
- Plant response rating, Wheat [20, 23]: 0
- Plant response rating, Wheat [20, 24]: 0

Structure (SMILES): NN=Cc1cccc(Oc2ncc(Cl)cn2)c1-n1cc(Br)cn1 [Compound 288]
- Plant response rating, Crabgrass, Large [1, 23]: 10
- Plant response rating, Crabgrass, Large [1, 24]: 20
- Plant response rating, Velvetleaf [2, 23]: 20
- Plant response rating, Velvetleaf [2, 24]: 30
- Plant response rating, Pigweed [3, 23]: 90
- Plant response rating, Pigweed [3, 24]: 100
- Corn plant response rating (0 to 100 scale) [4]: 0
- Corn plant response rating [4, 24]: 0
- Morningglory plant response rating (0 to 100 scale) [5]: 0
- Morningglory plant response rating [5, 24]: 0
- Plant response rating, Corn [6, 23]: 0
- Plant response rating, Corn [6, 24]: 10
- Plant response rating, Foxtail, Giant [7, 23]: 10
- Plant response rating, Foxtail, Giant [7, 24]: 20
- Velvetleaf plant response rating (0 to 100 scale) [8]: 0
- Velvetleaf plant response rating [8, 24]: 10
- Crabgrass, Large plant response rating (0 to 100 scale) [9]: 0
- Crabgrass, Large plant response rating [9, 24]: 10
- Barnyardgrass plant response rating (0 to 100 scale, 0 is no effect, 100 is complete control) [10]: 0
- Barnyardgrass plant response rating [10, 24]: 10
- Plant response rating, Sedge, Umbrella [11]: 0
- Wheat plant response rating (0 to 100 scale) [12]: 0
- Wheat plant response rating [12, 24]: 0
- Pigweed plant response rating (0 to 100 scale) [13]: 20
- Pigweed plant response rating [13, 24]: 90
- Plant response rating, Barnyardgrass [14, 23]: 0
- Plant response rating, Barnyardgrass [14, 24]: 10
- Foxtail, Giant plant response rating (0 to 100 scale) [15]: 0
- Foxtail, Giant plant response rating [15, 24]: 0
- Plant response rating, Rice [16]: 0
- Plant response rating, Barnyardgrass [17]: 0
- Plant response rating, Morningglory [18, 23]: 20
- Plant response rating, Morningglory [18, 24]: 40
- Plant response rating, Ducksalad [19]: 0
- Plant response rating, Wheat [20, 23]: 0
- Plant response rating, Wheat [20, 24]: 0

Structure (SMILES): Clc1cnc(Oc2cccc(-c3cnoc3)c2-n2cc(Br)cn2)nc1 [Compound 291]
- Plant response rating, Crabgrass, Large [1, 23]: 10
- Plant response rating, Crabgrass, Large [1, 24]: 60
- Plant response rating, Velvetleaf [2, 23]: 50
- Plant response rating, Velvetleaf [2, 24]: 60
- Plant response rating, Pigweed [3, 23]: 30
- Plant response rating, Pigweed [3, 24]: 70
- Corn plant response rating (0 to 100 scale) [4]: 0
- Corn plant response rating [4, 24]: 0
- Morningglory plant response rating (0 to 100 scale) [5]: 0
- Morningglory plant response rating [5, 24]: 0
- Plant response rating, Corn [6, 23]: 0
- Plant response rating, Corn [6, 24]: 10
- Plant response rating, Foxtail, Giant [7, 23]: 0
- Plant response rating, Foxtail, Giant [7, 24]: 50
- Velvetleaf plant response rating (0 to 100 scale) [8]: 40
- Velvetleaf plant response rating [8, 24]: 60
- Crabgrass, Large plant response rating (0 to 100 scale) [9]: 50
- Crabgrass, Large plant response rating [9, 24]: 90
- Barnyardgrass plant response rating (0 to 100 scale, 0 is no effect, 100 is complete control) [10]: 0
- Barnyardgrass plant response rating [10, 24]: 50
- Plant response rating, Sedge, Umbrella [11]: 0
- Wheat plant response rating (0 to 100 scale) [12]: 0
- Wheat plant response rating [12, 24]: 0
- Pigweed plant response rating (0 to 100 scale) [13]: 60
- Pigweed plant response rating [13, 24]: 90
- Plant response rating, Barnyardgrass [14, 23]: 0
- Plant response rating, Barnyardgrass [14, 24]: 40
- Foxtail, Giant plant response rating (0 to 100 scale) [15]: 20
- Foxtail, Giant plant response rating [15, 24]: 80
- Plant response rating, Rice [16]: 0
- Plant response rating, Barnyardgrass [17]: 0
- Plant response rating, Morningglory [18, 23]: 30
- Plant response rating, Morningglory [18, 24]: 40
- Plant response rating, Ducksalad [19]: 0
- Plant response rating, Wheat [20, 23]: 0
- Plant response rating, Wheat [20, 24]: 0
